Test results from patent publication US5589337A (priority 1995, dated 1996).
Counter-ions that a name gives are not always drawn. Like-named read-outs stand apart in the source and are kept apart here.

Key:
sodA gene = details: cited from earlier work
in vitro [1] = details: clpb promoter-lacz e. coli
[2] = micF promoter-lacZ induction (preferred kit, β-galactosidase); details: promoter-lacz bacterial strain
[3] = groE promoter-lacZ induction (preferred kit, β-galactosidase); details: groe promoter-lacz e. coli
fepB promoter = assay: fepB promoter-controlled β-galactosidase expression (Example 7); details: 2,2'-dipyridyl 0-160 μM; FIG. 6
adaA promoter = assay: adaA (ada-alkA) promoter-controlled β-galactosidase expression (Example 7)
dinD promoter [4] = assay: dinD promoter-controlled β-galactosidase expression (Example 7); details: for dinD controlled β-galactosidase expression: 5 μg/ml, 0 min 321
dinD promoter [5] = details: cited from earlier work
nfo promoter = assay: nfo promoter-controlled β-galactosidase expression (Example 7)
soi28 promoter [6] = assay: soi28 promoter-lacZ induction (preferred kit, β-galactosidase)
dinD promoter [7] = tested on: dinD promoter
DNA strand breaks = details: cited from earlier work
[8] = soi28 promoter-lacZ induction (preferred kit, β-galactosidase); details: promoter-lacz bacterial strain
[9] = nfo promoter-lacZ induction (preferred kit, β-galactosidase); details: nfo promoter-lacz e. coli
topA promoter = assay: topA promoter-lacZ induction (preferred kit, β-galactosidase); details: Escherichia coli, read-out: Fold Induction, topA
in vitro [10] = details: dind promoter-lacz e. coli
clpB promoter = details: 0.32 mg/ml
micF promoter = assay: micF promoter-lacZ induction (preferred kit, β-galactosidase)
ada gene = details: cited from earlier work
micF gene = details: cited from earlier work
ahp gene = details: cited from earlier work
katG gene = details: cited from earlier work
[11] = katG promoter-lacZ induction (preferred kit, β-galactosidase); details: promoter-lacz bacterial strain
merR promoter = assay: merR promoter-lacZ induction (preferred kit, β-galactosidase)
ada promoter = assay: ada promoter-lacZ induction (preferred kit, β-galactosidase); details: MMS 470 μM to 1880 μM; FIG. 9
zwf promoter = assay: zwf promoter-lacZ induction (preferred kit, β-galactosidase); details: Escherichia coli, read-out: Fold Induction, zwf
gsh gene = details: cited from earlier work
proU promoter = assay: proU promoter-controlled β-galactosidase expression (Example 7); details: NaCl 0-0.8M; FIG. 5
soi17 promoter = assay: soi17 promoter-controlled β-galactosidase expression (Example 7); details: NaCl 0-0.8M; FIG. 5
[12] = tested on: mutant strains of Salmonella typhimurium; details: cited from earlier work
soi28 promoter [13] = assay: soi28 promoter-controlled β-galactosidase expression (Example 7)
ndh promoter = assay: ndh promoter-controlled β-galactosidase expression (Example 7)
nfo gene = details: cited from earlier work
rdc promoter = details: cited from earlier work
zwf gene = details: cited from earlier work
[14] = 2,2'-dipyridyl 0-160 μM, FIG. 6

c1cnc2c(c1)ccc1cccnc12 [1, 10-phenanthroline]
sodA gene induction (sodA gene): also induced

CCCO [1-propanol]
fold induction (in vitro [1]): 5.6 | fold induction [2]: 4 | fold induction [3]: 1.5

c1ccc(-c2ccccn2)nc1 [2,2'-dipyridyl]
effect on DNA replication (sfiA promoter) (sfiA promoter; [14]): no effect on DNA replication (sfiA promoter) | induction of fepB promoter (chelating metals) (fepB promoter): fepB induction | sodA gene induction (sodA gene): also induced | induction of sodA promoter (superoxide formation) (sodA promoter; [14]): sodA induction

O=[N+]([O-])c1cc[n+]([O-])c2ccccc12 [4-NQO, 4-nitroquinoline oxide]
induction of adaA promoter (DNA alkylation) (adaA promoter; 4-NQO 0-100 picomolar, FIG. 2): not DNA alkylation (adaA promoter) | induction of dinD promoter (dinD promoter [4]; 4-NQO 0-100 picomolar, FIG. 2): induction of the sfiA and dinD promoters | dinD induction (dinD promoter [5]): Typical inducers of dinD | induction of nfo promoter (nfo promoter; 4-NQO 0-100 picomolar, FIG. 2): minor, but dose-dependent induction | induction of sfiA promoter (sfiA promoter; 4-NQO 0-100 picomolar, FIG. 2): induction of the sfiA and dinD promoters | induction of soi28 promoter (soi28 promoter [6]; 4-NQO, FIG. 11): to a lesser extent | induction of dinD promoter (dinD promoter [7]; 4-NQO, FIG. 11): causes induction of the dinD promoter

O=C1O[C@H]([C@@H](O)CO)C(O)=C1O [Ascorbic acid]
number of hydrogen peroxide induced DNA strand breaks (DNA strand breaks): reduce the number of hydrogen peroxide induced DNA strand breaks

ClC(Cl)Cl [Chloroform]
fold induction (in vitro [1]): 4.5 | fold induction [8]: 2

C[S+](C)[O-] [DMSO]
fold induction (in vitro [1]): 2 | fold induction [9]: 1.6 | fold induction at 25 % (topA promoter): 1.7 | fold induction (in vitro [10]): 2.2

O=[N+]([O-])c1ccc(F)c([N+](=O)[O-])c1 [Dinitrofluoro benzene]
Fold Induction, clpB (clpB promoter): 2 fold | Fold Induction, micF (micF promoter; 0.32 mg/ml): 3.2 fold

O=C(O)CN(CCN(CC(=O)O)CC(=O)O)CC(=O)O [EDTA]
sodA gene induction (sodA gene): also induced

CCOS(C)(=O)=O [EMS, ethlymethanosulfate]
ada gene expression induction (ada gene): induce ada gene expression

CCO [Ethanol]
micF gene induction (micF gene): also induced | fold induction [8]: 1.7 | fold induction [2]: 2.5

OO [Hydrogen peroxide]
ahp gene induction (ahp gene): induced | katG gene induction (katG gene): can be induced | dinD induction (dinD promoter [5]): does not respond to oxidative DNA damage, except when cells are exposed to extremely high concentrations of H2 O2 | fold induction [11]: 2 | fold induction (in vitro [10]): 3

[Cl][Hg][Cl] [Mercuric chloride]
Fold Induction, merR (merR promoter; 2 ng/ml): 27 fold | induction of merR promoter (merR promoter; mercuric chloride, FIG. 10): specifically induces the merR promoter

COS(C)(=O)=O [Methyl Methane-sulfonate, methyl methanesulfonate]
induction of adaA promoter (DNA alkylation) (adaA promoter; MMS 0-40 nM, FIG. 3): induction of the adaA promoter | induction of dinD promoter (strand breaks) (dinD promoter [4]; MMS 0-40 nM, FIG. 3): not via stand breaks (dinD promoter) | induction of nfo promoter (oxygen-dependent damage) (nfo promoter; MMS 0-40 nM, FIG. 3): not oxygen-dependent (nfo promoter) | induction of ada promoter (ada promoter): specifically induces the ada promoter | ada gene expression induction (ada gene): induce ada gene expression

CO[C@@]12[C@H](COC(N)=O)C3=C(C(=O)C(C)=C(N)C3=O)N1C[C@@H]1N[C@@H]12 [Mitomycin C]
dinD controlled β-galactosidase expression (dinD promoter [4]; 15 min exposure): 350 | dinD controlled β-galactosidase expression (dinD promoter [4]; 25 min exposure): 1036 | dinD controlled β-galactosidase expression (dinD promoter [4]; 35 min exposure): 811 | dinD controlled β-galactosidase expression (dinD promoter [4]; 55 min exposure): 1204 | fold induction at 5 µg/mL (dinD promoter [4]; Escherichia coli, 55 min, read-out: dinD promoter induction): ~4 | dinD induction (dinD promoter [5]): Typical inducers of dinD

CN(C)C=O [N,N Dimethyl formamide]
fold induction (in vitro [1]): 2.5 | fold induction at 0.8 % (zwf promoter): 1.5 | fold induction [2]: 3.3

CCN1C(=O)C=CC1=O [N-ethylmaleimide]
gsh gene induction (gsh gene): induced

[Cl-].[Na+] [NaCl, sodium chloride]
induction of proU promoter (proU promoter): induces the proU promoter | induction of sodA promoter (superoxide formation) (sodA promoter; NaCl 0-0.8M, FIG. 5): no induction of sodA or soi17 | induction of soi17 promoter (superoxide formation) (soi17 promoter): no induction of sodA or soi17

C[n+]1ccc(-c2cc[n+](C)cc2)cc1 [Paraquat]
response in Ames Assay [12]: neither compound produces a positive response | induction of nfo promoter (nfo promoter): induced the nfo promoter | nfo induction, galactosidase activity (nfo promoter; 50 μM, 0 μM control 2952): 8100 units | fold induction at 8000 µg/mL (zwf promoter): 3 | micF gene induction (micF gene): induced | effect on merR promoter (merR promoter): apparent inhibition | induction of soi28 promoter (soi28 promoter [13]): cause induction of the soi28 promoter | soi28 induction, galactosidase activity (soi28 promoter [13]; 50 μM, 0 μM control 670): 2370 units | induction of soi28 promoter (soi28 promoter [6]): specific induction of the soi28 and micF promoters | sodA gene induction (sodA gene): strongly induced | induction of micF promoter (micF promoter): specific induction of the soi28 and micF promoters | induction of ndh promoter (ndh promoter): negligible effect | ndh induction, galactosidase activity (ndh promoter; 50 μM, 0 μM control 464): 980 units | nfo induction (nfo gene): specifically induced | effect on dinD promoter (dinD promoter [7]): apparent inhibition

Oc1ccccc1 [Phenol]
fold induction (in vitro [1]): 1.5 | fold induction [3]: 2.2

CC(C)(C)c1cc(O)ccc1O [Tert-butyl hydroquinone]
fold induction at 2000 µM (in vitro [1]): 2.8 | fold induction at 2000 µM [2]: 2.6

CC1=CC(=O)c2ccccc2C1=O [menadione]
sodA gene induction (sodA gene): strongly induced | nfo induction (nfo gene): specifically induced

CN(C)c1ccc2nc3ccc(=[N+](C)C)cc-3sc2c1 [methylene blue]
sodA gene induction (sodA gene): strongly induced

C[n+]1c2ccccc2nc2ccccc21 [phenazine methyl sulfate]
sodA gene induction (sodA gene): strongly induced

CC1=CC(=O)c2c(O)cccc2C1=O [plumbagin]
response in Ames Assay [12]: neither compound produces a positive response | induction of soi28 promoter (soi28 promoter [13]; plumbagin 0-160 μM, FIG. 4): cause induction of the soi28 promoter | sodA gene induction (sodA gene): strongly induced

COC1=C(N)C(=O)c2nc(-c3nc(C(=O)O)c(C)c(-c4ccc(OC)c(OC)c4O)c3N)ccc2C1=O [streptonigrin]
sodA gene induction (sodA gene): strongly induced

OCC(O)CS (stereo not drawn) [thioglycerol]
rdc promoter induction (rdc promoter): induced

bleomycin
dinD induction (dinD promoter [5]): Typical inducers of dinD

nitric oxide
zwf gene induction (zwf gene): induced
